Measured values reported in US8952024B2, “Herbicidal pyrimidone derivatives” (E I du Pont de Nemours and Company, priority 2009, dated 2015).

Tests used:
Test in all cases: Test D pre-/postemergence plant response
Type in all cases: in vivo
kochia (Kochia scoparia) = system: kochia (Kochia scoparia)
Method in brief: (§1)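 Visual 0–100 scoring (100 = complete control) versus untreated controls after 14–21 greenhouse days. Compounds, formulated in surfactant-containing non-phytotoxic solvent, were applied preemergence to seeded loam/sand and postemergence to 2–18 cm plants (1–4 leaves).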

[1] = system: morningglory (pitted morningglory, Ipomoea lacunosa)
Method in brief: as §1

[2] = system: purslane (common purslane, Portulaca oleracea)
Method in brief: as §1

[3] = system: bermudagrass (Cynodon dactylon)
Method in brief: as §1

[4] = system: nutsedge (purple nutsedge, Cyperus rotundus)
Method in brief: as §1

[5] = system: guineagrass (Panicum maximum)
Method in brief: as §1

[6] = system: spanishneedles (Bidens bipinnata)
Method in brief: as §1

[7] = system: black mustard (Brassica nigra)
Method in brief: as §1

[8] = system: dayflower (Virginia (VA) dayflower, Commelina virginica)
Method in brief: as §1

[9] = system: prickly sida (Sida spinosa)
Method in brief: as §1

[10] = system: itchgrass (Rottboellia cochinchinensis)
Method in brief: as §1

[11] = system: Surinam grass (Brachiaria decumbens)
Method in brief: as §1

[12] = system: goosegrass (Eleusine indica)
Method in brief: as §1

[13] = system: sowthistle (common sowthistle, Sonchus oleraceous)
Method in brief: as §1

[14] = system: green foxtail (Setaria viridis)
Method in brief: as §1

[15] = system: bluegrass (annual bluegrass, Poa annua)
Method in brief: as §1

[16] = system: signalgrass (broadleaf signalgrass, Brachiaria platyphylla)
Method in brief: as §1

[17] = system: Russian thistle (Salsola kali)
Method in brief: as §1

[18] = Postemergence, 31 g ai/ha, scale 0 to 100
[19] = Postemergence, 62 g ai/ha, scale 0 to 100 (0 no effect, 100 complete control)
[20] = Postemergence, 125 g ai/ha, scale 0 to 100 (0 no effect, 100 complete control)
[21] = Postemergence, 16 g ai/ha, scale 0 to 100
[22] = Preemergence, 16 g ai/ha, scale 0 to 100, 0 no effect, 100 complete control
[23] = Preemergence, 31 g ai/ha, scale 0 to 100 (0 no effect, 100 complete control)
[24] = Preemergence, 62 g ai/ha, scale 0 to 100
[25] = Preemergence, 125 g ai/ha, scale 0 to 100
[26] = Postemergence, 31 g ai/ha, scale 0 to 100 (0 no effect, 100 complete control)

O=C1CCCC(O)=C1C(=O)c1cnc(-c2ccccc2)n(CC2CCCO2)c1=O (stereo not drawn) [Compound 59]
Plant response rating, Kochia (kochia (Kochia scoparia); [18]): 5 | Plant response rating, Kochia (kochia (Kochia scoparia); [19]): 20 | Plant response rating, Kochia (kochia (Kochia scoparia); [20]): 50 | Plant response rating, Kochia (kochia (Kochia scoparia); [21]): 5 | Plant response rating, Kochia (kochia (Kochia scoparia); [22]): 0 | Plant response rating, Kochia (kochia (Kochia scoparia); [23]): 0 | Plant response rating, Kochia (kochia (Kochia scoparia); [24]): 0 | Plant response rating, Kochia (kochia (Kochia scoparia); [25]): 0 | Plant response rating, Morningglory [1, 18]: 40 | Plant response rating, Morningglory [1, 19]: 50 | Plant response rating, Morningglory [1, 20]: 50 | Plant response rating, Morningglory [1, 21]: 0 | Plant response rating, Morningglory [1, 22]: 0 | Plant response rating, Morningglory [1, 23]: 0 | Plant response rating, Morningglory [1, 24]: 0 | Plant response rating, Morningglory [1, 25]: 80 | Plant response rating, Purslane [2, 18]: 35 | Plant response rating, Purslane [2, 19]: 35 | Plant response rating, Purslane [2, 20]: 50 | Plant response rating, Purslane [2, 21]: 35 | Plant response rating, Purslane [2, 22]: 65 | Plant response rating, Purslane [2, 23]: 100 | Plant response rating, Purslane [2, 24]: 100 | Plant response rating, Purslane [2, 25]: 100 | Plant response rating, Bermudagrass [3, 26]: 40 | Plant response rating, Bermudagrass [3, 19]: 70 | Plant response rating, Bermudagrass [3, 20]: 80 | Plant response rating, Bermudagrass [3, 21]: 35 | Plant response rating, Bermudagrass [3, 22]: 0 | Plant response rating, Bermudagrass [3, 23]: 0 | Plant response rating, Bermudagrass [3, 24]: 40 | Plant response rating, Bermudagrass [3, 25]: 90 | Plant response rating, Nutsedge, Purple [4, 18]: 0 | Plant response rating, Nutsedge, Purple [4, 19]: 20 | Plant response rating, Nutsedge, Purple [4, 20]: 25 | Plant response rating, Nutsedge, Purple [4, 21]: 0 | Plant response rating, Nutsedge, Purple [4, 22]: 0 | Plant response rating, Nutsedge, Purple [4, 23]: 20 | Plant response rating, Nutsedge, Purple [4, 24]: 20 | Plant response rating, Nutsedge, Purple [4, 25]: 80 | Plant response rating, Guineagrass [5, 18]: 10 | Plant response rating, Guineagrass [5, 19]: 20 | Plant response rating, Guineagrass [5, 20]: 20 | Plant response rating, Guineagrass [5, 21]: 10 | Plant response rating, Guineagrass [5, 22]: 0 | Plant response rating, Guineagrass [5, 23]: 0 | Plant response rating, Guineagrass [5, 24]: 0 | Plant response rating, Guineagrass [5, 25]: 0 | Plant response rating, Spanishneedles [6, 18]: 50 | Plant response rating, Spanishneedles [6, 19]: 70 | Plant response rating, Spanishneedles [6, 20]: 70 | Plant response rating, Spanishneedles [6, 21]: 30 | Plant response rating, Spanishneedles [6, 22]: 0 | Plant response rating, Spanishneedles [6, 23]: 0 | Plant response rating, Spanishneedles [6, 25]: 90 | Plant response rating, Black Mustard [7, 26]: 40 | Plant response rating, Black Mustard [7, 19]: 65 | Plant response rating, Black Mustard [7, 20]: 98 | Plant response rating, Black Mustard [7, 21]: 10 | Plant response rating, Black Mustard [7, 22]: 20 | Plant response rating, Black Mustard [7, 23]: 40 | Plant response rating, Black Mustard [7, 24]: 60 | Plant response rating, Black Mustard [7, 25]: 100 | Plant response rating, Dayflower, VA [8, 19]: 60 | Plant response rating, Dayflower, VA [8, 21]: 25 | Plant response rating, Dayflower, VA [8, 23]: 0 | Plant response rating, Dayflower, VA [8, 24]: 35 | Plant response rating, Dayflower, VA [8, 25]: 35 | Plant response rating, Prickly Sida [9, 18]: 40 | Plant response rating, Prickly Sida [9, 19]: 70 | Plant response rating, Prickly Sida [9, 20]: 70 | Plant response rating, Prickly Sida [9, 21]: 40 | Plant response rating, Prickly Sida [9, 22]: 0 | Plant response rating, Prickly Sida [9, 23]: 0 | Plant response rating, Prickly Sida [9, 24]: 5 | Plant response rating, Prickly Sida [9, 25]: 65 | Plant response rating, Itchgrass [10, 18]: 15 | Plant response rating, Itchgrass [10, 19]: 15 | Plant response rating, Itchgrass [10, 20]: 75 | Plant response rating, Itchgrass [10, 21]: 0 | Plant response rating, Itchgrass [10, 22]: 0 | Plant response rating, Itchgrass [10, 23]: 0 | Plant response rating, Itchgrass [10, 24]: 0 | Plant response rating, Itchgrass [10, 25]: 20 | Plant response rating, Surinam Grass [11, 18]: 35 | Plant response rating, Surinam Grass [11, 19]: 50 | Plant response rating, Surinam Grass [11, 20]: 60 | Plant response rating, Surinam Grass [11, 21]: 30 | Plant response rating, Surinam Grass [11, 22]: 5 | Plant response rating, Surinam Grass [11, 23]: 90 | Plant response rating, Surinam Grass [11, 25]: 100 | Plant response rating, Goosegrass [12, 18]: 20 | Plant response rating, Goosegrass [12, 19]: 50 | Plant response rating, Goosegrass [12, 20]: 65 | Plant response rating, Goosegrass [12, 21]: 20 | Plant response rating, Goosegrass [12, 22]: 0 | Plant response rating, Goosegrass [12, 23]: 5 | Plant response rating, Goosegrass [12, 24]: 20 | Plant response rating, Goosegrass [12, 25]: 80 | Plant response rating, Sowthistle [13, 18]: 100 | Plant response rating, Sowthistle [13, 19]: 100 | Plant response rating, Sowthistle [13, 20]: 100 | Plant response rating, Sowthistle [13, 21]: 70 | Plant response rating, Sowthistle [13, 22]: 0 | Plant response rating, Sowthistle [13, 23]: 95 | Plant response rating, Sowthistle [13, 25]: 100 | Plant response rating, Foxtail, Green [14, 18]: 5 | Plant response rating, Foxtail, Green [14, 19]: 20 | Plant response rating, Foxtail, Green [14, 20]: 35 | Plant response rating, Foxtail, Green [14, 21]: 0 | Plant response rating, Foxtail, Green [14, 22]: 0 | Plant response rating, Foxtail, Green [14, 23]: 0 | Plant response rating, Foxtail, Green [14, 24]: 0 | Plant response rating, Foxtail, Green [14, 25]: 0 | Plant response rating, Bluegrass [15, 26]: 0 | Plant response rating, Bluegrass [15, 19]: 0 | Plant response rating, Bluegrass [15, 20]: 5 | Plant response rating, Bluegrass [15, 21]: 0 | Plant response rating, Bluegrass [15, 22]: 0 | Plant response rating, Bluegrass [15, 23]: 0 | Plant response rating, Bluegrass [15, 24]: 15 | Plant response rating, Bluegrass [15, 25]: 30 | Plant response rating, Signalgrass [16, 18]: 5 | Plant response rating, Signalgrass [16, 19]: 10 | Plant response rating, Signalgrass [16, 20]: 20 | Plant response rating, Signalgrass [16, 21]: 5 | Plant response rating, Signalgrass [16, 22]: 0 | Plant response rating, Signalgrass [16, 23]: 0 | Plant response rating, Signalgrass [16, 25]: 5 | Plant response rating, Russian Thistle [17, 20]: 65 | Plant response rating, Russian Thistle [17, 23]: 90 | Plant response rating, Russian Thistle [17, 25]: 100

COCCn1c(-c2ccsc2)ncc(C(=O)C2=C(O)C3CCC(C3)C2=O)c1=O (stereo not drawn) [Compound 228]
Plant response rating, Kochia (kochia (Kochia scoparia); [20]): 75 | Plant response rating, Morningglory [1, 20]: 50 | Plant response rating, Purslane [2, 20]: 35 | Plant response rating, Bermudagrass [3, 26]: 70 | Plant response rating, Bermudagrass [3, 20]: 70 | Plant response rating, Nutsedge, Purple [4, 20]: 15 | Plant response rating, Guineagrass [5, 20]: 15 | Plant response rating, Spanishneedles [6, 20]: 70 | Plant response rating, Black Mustard [7, 26]: 20 | Plant response rating, Black Mustard [7, 20]: 50 | Plant response rating, Dayflower, VA [8, 20]: 85 | Plant response rating, Prickly Sida [9, 20]: 65 | Plant response rating, Itchgrass [10, 20]: 65 | Plant response rating, Surinam Grass [11, 20]: 70 | Plant response rating, Goosegrass [12, 20]: 70 | Plant response rating, Sowthistle [13, 20]: 98 | Plant response rating, Foxtail, Green [14, 20]: 80 | Plant response rating, Bluegrass [15, 26]: 0 | Plant response rating, Bluegrass [15, 20]: 5 | Plant response rating, Signalgrass [16, 20]: 20 | Plant response rating, Russian Thistle [17, 20]: 65
